Results from US9593305B2, “Differentiation of pluripotent stem cells” (Janssen Biotech, Inc., priority 2008, dated 2017).

Legend:
[1] = system: H1 human embryonic stem cells; test: Screen of CDK, GSK3 and TRK inhibitors with or without GDF-8, SOX17 and cell number (Example 20, Table 17); type: cell-based; details: Plate 1; for Cell Number, % of positive control / Sox17 Expression, % of positive control: positive control = Activin A/Wnt3a
Protocol: Briefly, clusters of H1 human embryonic stem cells were grown on reduced growth factor Matrigel™ (Invitrogen; Cat #356231) coated tissue culture plastic. Cells were passaged using collagenase (Invitrogen; Cat #17104-019) treatment and gentle scraping, washed to remove residual enzyme, and plated with even dispersal at a ratio of 1:1 (surface area) on reduced growth factor […]™ (BD Biosciences; Cat #356231)-coated 96-well black plates (Packard ViewPlates; PerkinElmer; Cat #6005182) using volumes of 100 μl/well. Cells were allowed to attach and then recover log phase growth over a 1 to 3 day time period, feeding daily with MEF conditioned medium supplemented with 8 ng/ml bFGF (R&D Systems; Cat #233-FB). Plates were maintained at 37° C., 5% CO2 in a humidified box throughout the duration of assay.
Screening was conducted using the compounds described in Table 16. […] Compounds were made available as 5 mM stocks in 96-well plate format, solubilized in 100% DMSO (Sigma; Cat #D2650) and stored at −80° C. The library compounds were further diluted to an intermediate concentration of 0.2 mM in 50 mM HEPES (Invitrogen; Cat #15630-080), 20% DMSO and stored at 4° C. Test conditions were performed in triplicate, feeding on alternating days over a four-day assay period. Assay was initiated by aspirating culture medium from each well followed by three washes in PBS (Invitrogen; Cat #14190) to remove residual growth factors. On the first day of assay, test volumes of 200 μl per well were added to each well using DMEM:F12 base medium (Invitrogen; Cat #11330-032) supplemented with 0.5% FCS (HyClone; Cat #SH30070.03) and 100 ng/ml GDF-8 (R&D Systems, Cat #788-G8) plus 2.5 μM compound. A parallel set of test samples were treated in an identical manner but omitting GDF-8 from the medium. On the third day of assay, test volumes of 100 μper well were added to each well using DMEM:F12 base medium supplemented with 2% FCS plus 100 ng/ml GDF-8 (R&D Systems, Cat #788-G8). […] Positive control samples contained the same base medium supplemented with FCS and 100 ng/ml recombinant human activin A (PeproTech; Cat #120-14) throughout the four day assay along with Wnt3a (20 ng/ml) addition on days 1 and 2. Negative control samples contained DMEM:F12 base medium supplemented with FCS.
At the conclusion of four-days of culture, assay plates were washed twice with PBS (Invitrogen; Cat #14190), fixed with 4% paraformaldehyde (Alexis Biochemical; Cat #ALX-350-011) at room temperature for 20 minutes, then washed three times with PBS and permeabilized with 0.5% Triton X-100 (Sigma; Cat #T8760-2) for 20 minutes at room temperature. Cells were washed again three times with PBS and blocked with 4% chicken serum (Invitrogen; Cat #16110082) in PBS for 30 minutes at room temperature. Primary antibody (goat anti-human SOX17; R&D Systems; Cat #AF1924) was diluted 1:100 in 4% chicken serum and added to each well for one hour at room temperature. Alexa Fluor 488 conjugated secondary antibody (chicken anti-goat IgG; Molecular Probes; Cat #AZ1467) was diluted 1:200 in PBS and added to each sample well after washing three times with PBS. To counterstain nuclei, 4 μg/ml Hoechst 33342 (Invitrogen; Cat #H3570) was added for ten minutes at room temperature. Plates were washed once with PBS and left in 100 μl/well PBS for imaging.
Imaging was performed using an IN Cell Analyzer 1000 (GE Healthcare) utilizing the 51008bs dichroic for cells stained with Hoechst 33342 and Alexa Fluor 488. Exposure times were optimized from positive control wells and from untreated negative control wells stained with secondary antibody alone. Images from 15 fields per well were acquired to compensate for any cell loss during the bioassay and subsequent staining procedures. Measurements for total cell number and total SOX17 intensity were obtained from each well using IN Cell Developer Toolbox 1.7 (GE Healthcare) software. […]

[2] = system: CDK, GSK3, and/or TRK signaling pathways; test: Primary selectivity of the proprietary small molecules (Table 16); details: as listed in Table 17
Protocol: A subset of 14 proprietary small molecules, known to have specificity for the CDK, GSK3, and/or TRK signaling pathways were evaluated for their potential to differentiate human embryonic stem cells to cells expressing markers characteristic of the definitive endoderm lineage.

[3] = compound in combination with GDF8

COc1ccc2cc1OCCCC(=O)N(C)CC1CN(Cc3c[nH]c4ncnc(c34)N2)C1 [Compound 45, 10-Methoxy-17-methyl-2,14,15,17,18,19,20,22-octahydro-6H-1-19.21 methano-7,11-(metheno)-12-oxa-2,3,5,6,17,21-hexaazacycloicosa[1,2,3-cd]inden-16(13H)-one]
Cell Number, Average Total Cell Number ([1]; compound alone, No GDF8): 8857 | Sox17 Expression, Average Total Intensity ([1]; compound alone, No GDF8): −4.5E+05 | Cell Number, % of positive control ([1]; compound alone, No GDF8): 61.2 % of positive control | Sox17 Expression, % of positive control ([1]; compound alone, No GDF8): −0.2 % of positive control | Cell Number, Average Total Cell Number [1, 3]: 9540 | Sox17 Expression, Average Total Intensity [1, 3]: 1.1E+08 | Cell Number, % of positive control [1, 3]: 65.9 % of positive control | Sox17 Expression, % of positive control [1, 3]: 47.9 % of positive control | Compound Selectivity [2]: Selective for Trk

O=C1NCc2cccc(c2)-c2ccnc(n2)Nc2ccc(C(=O)N3CCOCC3)c(c2)CN2CCC[C@@H]12 [Compound 44, (18S)-11-(Morpholin-4-ylcarbonyl)-5,7,14,20,28-pentaazapentacyclo[20.3.1.1˜2,6˜0.1˜8,12˜0.0˜14,18˜]octacosa-1(26), 2(28), 3,5,8(27), 9,11,22,24-nonaen-19-one]
Cell Number, Average Total Cell Number ([1]; compound alone, No GDF8): 14 | Sox17 Expression, Average Total Intensity ([1]; compound alone, No GDF8): −1.1E+06 | Cell Number, % of positive control ([1]; compound alone, No GDF8): 0.1 % of positive control | Sox17 Expression, % of positive control ([1]; compound alone, No GDF8): −0.5 % of positive control | Cell Number, Average Total Cell Number [1, 3]: 226 | Sox17 Expression, Average Total Intensity [1, 3]: −9.5E+05 | Cell Number, % of positive control [1, 3]: 1.6 % of positive control | Sox17 Expression, % of positive control [1, 3]: −0.4 % of positive control | Compound Selectivity [2]: Selective for GSK

Nc1nccc(-c2cccc(Nc3ncc4nnn(-c5cccc(CNC(=O)C6CC6)c5)c4n3)c2)n1 [Compound 8, N-{[3-(5-{[3-(2-Aminopyrimidin-4-yl)phenyl]amino}-3H-1-[1,2,3]triazolo[4,5-d]pyrimidin-3-yl)phenyl]methyl}cyclopropanecarboxamide]
Cell Number, Average Total Cell Number ([1]; compound alone, No GDF8): 13235 | Sox17 Expression, Average Total Intensity ([1]; compound alone, No GDF8): 3.8E+05 | Cell Number, % of positive control ([1]; compound alone, No GDF8): 91.4 % of positive control | Sox17 Expression, % of positive control ([1]; compound alone, No GDF8): 0.2 % of positive control | Cell Number, Average Total Cell Number [1, 3]: 5018 | Sox17 Expression, Average Total Intensity [1, 3]: 4.7E+07 | Cell Number, % of positive control [1, 3]: 34.7 % of positive control | Sox17 Expression, % of positive control [1, 3]: 20.4 % of positive control | Compound Selectivity [2]: Selective for GSK

O=C(O)c1ccc(Nc2ncc3nnn(-c4cccc(F)c4)c3n2)cc1 [Compound 6]
Cell Number, Average Total Cell Number ([1]; compound alone, No GDF8): 14827 | Sox17 Expression, Average Total Intensity ([1]; compound alone, No GDF8): −1.8E+05 | Cell Number, % of positive control ([1]; compound alone, No GDF8): 102.4 % of positive control | Sox17 Expression, % of positive control ([1]; compound alone, No GDF8): −0.1 % of positive control | Cell Number, Average Total Cell Number [1, 3]: 5118 | Sox17 Expression, Average Total Intensity [1, 3]: 5.8E+07 | Cell Number, % of positive control [1, 3]: 35.4 % of positive control | Sox17 Expression, % of positive control [1, 3]: 25.2 % of positive control | Compound Selectivity [2]: Selective for GSK

CN1CCCc2cccc(c2)-c2nnc([nH]2)Nc2cccc(c2)CN2CCN(CC2)C(=O)C1 [Compound 43, 21-Methyl-1,8,10,11,21,24,30-heptaazapentacyclo[22.2.2.1˜3,7˜0.1˜9,12˜0.1˜13,17˜]hentriaconta-3(31). 4,6,9,11,13(29), 14,16-octaen-23-one]
Cell Number, Average Total Cell Number ([1]; compound alone, No GDF8): 8610 | Sox17 Expression, Average Total Intensity ([1]; compound alone, No GDF8): −2.1E+05 | Cell Number, % of positive control ([1]; compound alone, No GDF8): 59.5 % of positive control | Sox17 Expression, % of positive control ([1]; compound alone, No GDF8): −0.1 % of positive control | Cell Number, Average Total Cell Number [1, 3]: 6682 | Sox17 Expression, Average Total Intensity [1, 3]: 5.4E+07 | Cell Number, % of positive control [1, 3]: 46.2 % of positive control | Sox17 Expression, % of positive control [1, 3]: 23.4 % of positive control | Compound Selectivity [2]: Selective for Trk

COc1ccc(Nc2cc(Nc3cc(Cl)ccc3O)ncn2)cc1CCl [Compound 10, 4-Chloro-2-[(6-{[3-(chloromethyl)-4-methoxyphenyl]amino}pyrimidin-4-yl)amino]phenol]
Cell Number, Average Total Cell Number ([1]; compound alone, No GDF8): 7011 | Sox17 Expression, Average Total Intensity ([1]; compound alone, No GDF8): −6.6E+05 | Cell Number, % of positive control ([1]; compound alone, No GDF8): 48.4 % of positive control | Sox17 Expression, % of positive control ([1]; compound alone, No GDF8): −0.3 % of positive control | Cell Number, Average Total Cell Number [1, 3]: 4627 | Sox17 Expression, Average Total Intensity [1, 3]: 6.6E+07 | Cell Number, % of positive control [1, 3]: 32.0 % of positive control | Sox17 Expression, % of positive control [1, 3]: 28.6 % of positive control | Compound Selectivity [2]: Selective for CDK

COCCCNCc1ccc(Nc2nccc(-c3c[nH]c4ncccc34)n2)c(OC)c1 [Compound 12, N-(2-Methoxy-4-{[(3-methoxypropyl)amino]methyl}phenyl)-4-(1H-pyrrolo[2,3-b]pyridin-3-yl)pyrimidin-2-amine]
Cell Number, Average Total Cell Number ([1]; compound alone, No GDF8): 13124 | Sox17 Expression, Average Total Intensity ([1]; compound alone, No GDF8): −2.3E+05 | Cell Number, % of positive control ([1]; compound alone, No GDF8): 90.7 % of positive control | Sox17 Expression, % of positive control ([1]; compound alone, No GDF8): −0.1 % of positive control | Cell Number, Average Total Cell Number [1, 3]: 31 | Sox17 Expression, Average Total Intensity [1, 3]: −1.3E+06 | Cell Number, % of positive control [1, 3]: 0.2 % of positive control | Sox17 Expression, % of positive control [1, 3]: −0.6 % of positive control | Compound Selectivity ([2]; GDF8 treatment): Selective for CDK | Compound Selectivity ([2]; No GDF8 treatment): Selective for GSK

O=C(O)c1cc(Nc2ncc3nnn(-c4ccccc4)c3n2)ccc1F [Compound 7, 2-Fluoro-5-[(3-phenyl-3H-[1,2,3]triazolo[4,5-d]pyrimidin-5-yl)amino]benzoic acid]
Cell Number, Average Total Cell Number ([1]; compound alone, No GDF8): 3 | Sox17 Expression, Average Total Intensity ([1]; compound alone, No GDF8): −1.4E+06 | Cell Number, % of positive control ([1]; compound alone, No GDF8): 0.0 % of positive control | Sox17 Expression, % of positive control ([1]; compound alone, No GDF8): −0.6 % of positive control | Cell Number, Average Total Cell Number [1, 3]: 5296 | Sox17 Expression, Average Total Intensity [1, 3]: 7.0E+07 | Cell Number, % of positive control [1, 3]: 36.6 % of positive control | Sox17 Expression, % of positive control [1, 3]: 30.4 % of positive control | Compound Selectivity ([2]; GDF8 treatment): Selective for GSK | Compound Selectivity ([2]; No GDF8 treatment): Selective for CDK

COCCCNS(=O)(=O)c1ccc(Nc2ncc3cnn(C4CCCCC4)c3n2)cc1 [Compound 9, 4-[(1-Cyclohexyl-1H-pyrazolo[3,4-d]pyrimidin-6-yl)amino]-N-[3-(methyloxy)propyl]benzenesulfonamide]
Cell Number, Average Total Cell Number ([1]; compound alone, No GDF8): 7156 | Sox17 Expression, Average Total Intensity ([1]; compound alone, No GDF8): −4.2E+04 | Cell Number, % of positive control ([1]; compound alone, No GDF8): 49.4 % of positive control | Sox17 Expression, % of positive control ([1]; compound alone, No GDF8): 0.0 % of positive control | Cell Number, Average Total Cell Number [1, 3]: 4816 | Sox17 Expression, Average Total Intensity [1, 3]: 4.5E+07 | Cell Number, % of positive control [1, 3]: 33.3 % of positive control | Sox17 Expression, % of positive control [1, 3]: 19.4 % of positive control | Compound Selectivity [2]: Selective for CDK
